Values quoted from earlier work in article PMC10482267, “Safety, tolerability, pharmacokinetics, and pharmacodynamics of single and multiple doses of aficamten in healthy Chinese participants: a randomized, double-blind, placebo-controlled, phase 1 study” (Frontiers in Pharmacology, 2023).

Set-up: method as in Heitner et al., 2019; Olivotto et al., 2020
Conditions: humans; ref Heitner et al., 2019; Olivotto et al., 2020; cited from earlier work

CC(C)n1c(=O)cc(N[C@@H](C)c2ccccc2)[nH]c1=O [Mavacamten, mavacamten]
time to steady-state: approximately 6 weeks
